# Reference: ChEMBL document CHEMBL1201862, “PubChem BioAssay data set” (2004)
# The source made the active and inactive calls.
# How the values were obtained:
# [1] = target: Type-1 angiotensin II receptor (Homo sapiens, UniProt P30556); assay: AT1 receptor antagonists, dose response, selectivity assay for APJ receptor antagonist project, cell-based, uHTS hits (AID 463214); format: functional;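 further: antagonist potency against angiotensin II stimulated AT1 response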
# [2] = target: Beta-galactosidase (Escherichia coli, UniProt Q8VNN2); assay: PubChem AID 485352; format: functional
# [3] = test system: Candida albicans; assay: growth inhibition of azole-resistant C. albicans, dose response, CaCi-8 strain, Alamar Blue, dry powder, set 2 (AID 488909); format: functional, organism-based
# [4] = test system: Candida albicans; assay: growth inhibition of resistant C. albicans, dose response, CaCi-8 strain, fluconazole, dry powder, set 4 (AID 488950); format: functional, organism-based
# [5] = test system: Candida albicans; assay: fluconazole resistance reversal in C. albicans, dose response, CaCi-2 strain, Alamar Blue, dry powder, set 4 (AID 488943); format: functional, organism-based
# [6] = insulin promoter down-regulators in MIN6 cells, imaging, high-content screening, mouse beta cells (AID 1628); format: functional
# [7] = cytotoxicity in MIN6 insulinoma cells, dose response, cytotoxicity control, cell-based, mouse insulinoma (AID 2122); format: functional;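 further: confirmatory high-throughput counterscreen run to flag cytotoxic compounds; mouse MIN-6 beta cells carrying an insulin promoter eGFP reporter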
# [8] = growth suppression of PTEN-null colon cells, dose response, cell-based, HCT116 PTEN knockout (AID 1047); format: functional;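 further: HCT116 colon tumor cells with PTEN knocked out; cells exposed to compound for 60 hours before readout; potency for loss of cell viability measured by luminescence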
# [9] = Luminescence Cell-Based Dose Retest to Confirm Inhibitors of Cancer Stem Cells. [Related pubchem assays (depositor defined):AID2717, AID2721]; format: functional, Homo sapiens; details: Homo sapiens
# [10] = control 3'UTR Renilla luciferase suppression, dose response, counter-screen for Shn3 inhibitor project, cell-based, Clone20-Shn3RL, cherry-picked (AID 624133); format: functional
# [11] = Shn3 3'UTR reporter inhibitors, dose response, cell-based, Clone20 osteoblasts, firefly luciferase, cherry-picked (AID 624132); format: functional;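 further: firefly luciferase luminescence from reporter carrying the Shn3 3'UTR in osteoblasts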
# [12] = target: NACHT, LRR and PYD domains-containing protein 1 (Homo sapiens, UniProt Q9C000); assay: NALP1 inhibitors in yeast, dose response, luminescent (AID 488860); format: functional
# [13] = THP-1 cell cytotoxicity, dose response, cytotoxicity control for non-replicating M. tuberculosis project (AID 489025); format: functional
# [14] = HepG2 cell cytotoxicity, dose response, cytotoxicity control for Shn3 inhibitor project, CellTiter-Glo, cherry-picked (AID 624134); format: functional, cell-based
# [15] = Vero E6 cell cytotoxicity, dose response, cytotoxicity control for non-replicating M. tuberculosis project, secondary assay (AID 492998); format: functional, VeroE6; details: Vero C1008
# [16] = cells; format: functional
# [17] = test system: A-375; assay: MITF: Counter assay: A375 proliferation Measured in Cell-Based System Using Plate Reader - 2084-03_Inhibitor_Dose_DryPowder_Activity. [Related pubchem assays (depositor defined):AID488944]; format: functional; details: Homo sapiens
# [18] = test system: Saccharomyces cerevisiae; assay: NALP1 inhibitor project selectivity study, Caspase-1/ASC signal blockade IC50 in S. cerevisiae (AID 488863); format: functional, organism-based
# [19] = growth suppression of beta-catenin-knockout colon cells, dose response, cell-based, HCT116, human colon tumor (AID 1045); format: functional;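 further: HCT116 colon tumor cells with beta catenin knocked out; cells exposed to compound for 60 hours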
# [20] = target: T1, Microphthalmia-associated transcription factor (Homo sapiens, UniProt O75030); assay: TRPM1 promoter luciferase signal decrease, dose response, MITF inhibitor project, cell-based, SK-MEL-5, cherry-picked, set 3 (AID 493073); format: functional
# T1 sequence (O75030 whole entry): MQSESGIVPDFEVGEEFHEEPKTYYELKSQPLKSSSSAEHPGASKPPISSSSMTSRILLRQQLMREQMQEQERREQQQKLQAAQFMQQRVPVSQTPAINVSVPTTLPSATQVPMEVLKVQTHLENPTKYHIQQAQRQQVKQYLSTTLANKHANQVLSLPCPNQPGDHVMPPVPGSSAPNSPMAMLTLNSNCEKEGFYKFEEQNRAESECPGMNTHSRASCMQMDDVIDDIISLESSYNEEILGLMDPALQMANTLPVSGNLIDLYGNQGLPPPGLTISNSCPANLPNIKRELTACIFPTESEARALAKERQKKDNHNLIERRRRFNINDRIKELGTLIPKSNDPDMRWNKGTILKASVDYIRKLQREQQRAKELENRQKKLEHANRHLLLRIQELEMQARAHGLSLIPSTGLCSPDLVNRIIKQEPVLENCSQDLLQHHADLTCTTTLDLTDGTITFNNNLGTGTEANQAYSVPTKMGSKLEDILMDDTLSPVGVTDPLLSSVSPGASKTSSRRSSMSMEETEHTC
# [21] = HepG2 cell cytotoxicity, dose response, cytotoxicity control for non-replicating M. tuberculosis project (AID 489018); format: functional; details: Mycobacterium tuberculosis
# [22] = test system: A-375; assay: A375 melanoma cell viability reduction, dose response, counter-screen for MITF modulator project, cherry-pick samples, set 2 (AID 540335); format: functional, cell-based; details: Homo sapiens
# [23] = target: Dual specificity protein kinase CLK1 (Homo sapiens, UniProt P49759); assay: CLK1 kinase inhibitors, off-target check, dose response, selectivity assay for Dyrk1A inhibitor project, biochemical, cherry-picked samples (AID 588811)
# [24] = target: Cyclin-dependent kinase 2 (Homo sapiens, UniProt P24941); assay: CDK2 kinase inhibitors, off-target check, dose response, selectivity assay for Dyrk1A inhibitor project, biochemical, cherry-picked samples (AID 602127)
# Sequence of NACHT, LRR and PYD domains-containing protein 1 (Q9C000 1-1212 limits assumed): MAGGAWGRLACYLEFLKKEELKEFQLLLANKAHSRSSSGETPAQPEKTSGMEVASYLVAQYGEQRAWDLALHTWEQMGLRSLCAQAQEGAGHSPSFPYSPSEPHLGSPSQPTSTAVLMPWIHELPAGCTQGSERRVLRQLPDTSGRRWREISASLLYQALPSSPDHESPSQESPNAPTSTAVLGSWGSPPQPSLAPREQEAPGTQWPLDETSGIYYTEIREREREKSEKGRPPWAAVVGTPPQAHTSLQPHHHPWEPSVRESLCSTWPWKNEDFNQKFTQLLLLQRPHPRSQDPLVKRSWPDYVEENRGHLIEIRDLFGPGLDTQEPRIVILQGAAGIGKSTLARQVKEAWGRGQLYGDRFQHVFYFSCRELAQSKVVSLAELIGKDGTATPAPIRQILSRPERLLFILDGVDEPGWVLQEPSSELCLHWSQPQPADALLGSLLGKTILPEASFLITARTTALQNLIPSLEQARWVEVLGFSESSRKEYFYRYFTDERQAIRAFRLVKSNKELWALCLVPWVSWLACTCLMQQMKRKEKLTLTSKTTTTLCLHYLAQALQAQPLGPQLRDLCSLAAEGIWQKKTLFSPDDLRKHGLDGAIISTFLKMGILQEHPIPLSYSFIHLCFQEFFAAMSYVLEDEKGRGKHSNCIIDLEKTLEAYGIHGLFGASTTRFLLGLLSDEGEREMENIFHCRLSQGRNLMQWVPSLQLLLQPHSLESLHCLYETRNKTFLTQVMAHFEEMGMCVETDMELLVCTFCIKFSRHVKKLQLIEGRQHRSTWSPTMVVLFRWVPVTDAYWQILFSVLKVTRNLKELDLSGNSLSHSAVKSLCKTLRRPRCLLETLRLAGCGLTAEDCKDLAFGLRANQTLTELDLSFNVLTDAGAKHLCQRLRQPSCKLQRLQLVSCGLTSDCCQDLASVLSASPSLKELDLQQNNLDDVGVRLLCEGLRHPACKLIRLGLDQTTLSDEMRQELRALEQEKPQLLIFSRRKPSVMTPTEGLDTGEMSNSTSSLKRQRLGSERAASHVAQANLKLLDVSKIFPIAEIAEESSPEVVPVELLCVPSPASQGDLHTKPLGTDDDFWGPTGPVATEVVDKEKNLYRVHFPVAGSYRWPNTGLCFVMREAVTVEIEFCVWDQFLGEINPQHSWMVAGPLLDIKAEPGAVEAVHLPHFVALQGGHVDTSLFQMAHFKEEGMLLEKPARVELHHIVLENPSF
# Sequence of NACHT, LRR and PYD domains-containing protein 1 (Q9C000 1213-1473 limits assumed): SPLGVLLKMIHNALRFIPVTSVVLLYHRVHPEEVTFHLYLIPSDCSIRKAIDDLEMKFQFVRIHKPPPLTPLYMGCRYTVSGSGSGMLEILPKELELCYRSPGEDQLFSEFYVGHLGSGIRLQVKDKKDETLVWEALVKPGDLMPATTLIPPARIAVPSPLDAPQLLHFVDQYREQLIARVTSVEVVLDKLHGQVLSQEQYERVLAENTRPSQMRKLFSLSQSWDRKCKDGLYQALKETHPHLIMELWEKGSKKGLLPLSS
# Sequence of Beta-galactosidase (Q8VNN2 whole entry): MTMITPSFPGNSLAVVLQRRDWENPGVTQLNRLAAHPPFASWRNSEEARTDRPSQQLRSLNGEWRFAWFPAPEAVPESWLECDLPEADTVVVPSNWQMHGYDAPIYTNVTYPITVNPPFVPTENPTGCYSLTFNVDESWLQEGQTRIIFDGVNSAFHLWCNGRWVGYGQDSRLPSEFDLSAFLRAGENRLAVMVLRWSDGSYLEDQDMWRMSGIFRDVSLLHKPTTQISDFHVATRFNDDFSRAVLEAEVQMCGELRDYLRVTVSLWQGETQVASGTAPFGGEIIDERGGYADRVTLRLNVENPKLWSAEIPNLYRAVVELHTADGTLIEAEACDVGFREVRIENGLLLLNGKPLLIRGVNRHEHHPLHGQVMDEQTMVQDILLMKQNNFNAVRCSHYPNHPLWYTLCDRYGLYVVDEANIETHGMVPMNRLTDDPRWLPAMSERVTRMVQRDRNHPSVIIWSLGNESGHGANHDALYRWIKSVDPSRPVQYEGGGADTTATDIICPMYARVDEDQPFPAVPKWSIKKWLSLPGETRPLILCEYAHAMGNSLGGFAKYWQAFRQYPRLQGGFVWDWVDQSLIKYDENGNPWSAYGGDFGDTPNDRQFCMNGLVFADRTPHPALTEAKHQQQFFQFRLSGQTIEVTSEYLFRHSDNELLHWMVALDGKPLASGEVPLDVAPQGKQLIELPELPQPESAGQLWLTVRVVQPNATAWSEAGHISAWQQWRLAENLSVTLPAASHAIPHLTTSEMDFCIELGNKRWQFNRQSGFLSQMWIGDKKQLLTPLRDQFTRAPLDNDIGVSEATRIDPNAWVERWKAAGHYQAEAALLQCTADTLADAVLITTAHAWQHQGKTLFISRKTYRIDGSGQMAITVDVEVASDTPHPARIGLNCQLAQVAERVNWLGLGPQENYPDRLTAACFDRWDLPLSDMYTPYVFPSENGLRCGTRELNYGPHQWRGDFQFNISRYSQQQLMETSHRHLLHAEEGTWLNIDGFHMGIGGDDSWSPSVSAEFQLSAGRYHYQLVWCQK
# Sequence of Type-1 angiotensin II receptor (P30556 whole entry): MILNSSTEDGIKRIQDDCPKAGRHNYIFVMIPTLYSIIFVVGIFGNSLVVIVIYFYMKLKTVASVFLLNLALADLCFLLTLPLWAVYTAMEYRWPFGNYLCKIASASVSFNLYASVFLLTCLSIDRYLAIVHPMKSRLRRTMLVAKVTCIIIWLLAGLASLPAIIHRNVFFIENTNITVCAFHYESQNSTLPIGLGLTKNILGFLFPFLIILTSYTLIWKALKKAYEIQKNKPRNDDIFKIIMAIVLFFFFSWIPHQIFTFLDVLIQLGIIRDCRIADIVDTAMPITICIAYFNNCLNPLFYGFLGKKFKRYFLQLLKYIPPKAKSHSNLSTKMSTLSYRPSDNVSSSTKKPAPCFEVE
# Sequence of Dual specificity protein kinase CLK1 (P49759 whole entry): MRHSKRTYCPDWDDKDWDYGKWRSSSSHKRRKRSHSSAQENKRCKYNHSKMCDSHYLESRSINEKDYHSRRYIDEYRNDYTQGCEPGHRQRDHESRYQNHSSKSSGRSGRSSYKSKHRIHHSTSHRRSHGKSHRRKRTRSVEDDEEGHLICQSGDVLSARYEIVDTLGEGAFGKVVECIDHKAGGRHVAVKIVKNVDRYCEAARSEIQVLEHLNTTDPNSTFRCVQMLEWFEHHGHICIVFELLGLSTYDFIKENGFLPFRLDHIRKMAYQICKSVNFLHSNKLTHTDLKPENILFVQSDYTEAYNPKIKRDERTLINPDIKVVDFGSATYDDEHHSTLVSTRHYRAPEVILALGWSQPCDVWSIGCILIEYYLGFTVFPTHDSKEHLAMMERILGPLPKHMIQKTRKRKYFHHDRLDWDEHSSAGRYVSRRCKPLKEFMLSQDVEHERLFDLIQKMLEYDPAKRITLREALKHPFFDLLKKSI
smiles,measurement,setting,value
Cc1ccc(C)c(NCC(=O)c2ccc(Cl)cc2)c1,IC50,[1],14.4 µM (active)
same,EC50,[2],> 40 µM (inactive)
O=C(c1ccc(Cl)cc1)N1CCN(c2ncnc3ccccc23)CC1,AC50,[3],4.12 µM (active)
same,AC50,[4],2.27 µM (active)
same,AC50,[5],1.07 µM (active)
CCCOc1ccc(C(=O)C(CN2CCCC2)c2ccccc2)cc1 (centres undefined),IC50,[6],3.73 µM (active)
same,IC50,[7],3.13 µM (active)
same,EC50,[8],2.19 µM (active)
same,AC50,[9],1.76 µM (active)
same,AC50,[10],13.2 µM (active)
same,AC50,[11],4.84 µM (active)
same,IC50,[12],10.2 µM (active)
same,CC50,[13],6.32 µM (active)
same,AC50,[14],22.6 µM (active)
same,CC50,[15],9.02 µM (active)
same,IC50,[16],12.7 µM (active)
same,AC50,[17],> 35 µM (active)
same,IC50,[18],5.8 µM (active)
same,EC50,[19],1.96 µM (active)
same,AC50,[20],8.62 µM (active)
same,CC50,[21],13.3 µM (active)
same,AC50,[22],> 35 µM (active)
c1cncc(CNc2nccc(-c3ccc4cn[nH]c4c3)n2)c1,AC50,[23],0.0754 µM (active)
same,AC50,[24],13.8 µM (active)
